Data on one substance can be found in patent publication US7344734B2, “Powder formulation” (Rijksuniversiteit Groningen, priority 2000, dated 2008).

Assay type in all cases: physicochemical
Data set [1] is described as follows: Dry laser diffraction analysis of Colistin powder (RODOS dispersion). The method, then: A lactose size fraction of 106-150 μm, derived from 100 M lactose (DMV International, Veghel, The Netherlands) was used as excipient. The fraction was prepared by subsequent vibratory sieving (20 minutes in a Fritsch Analysette 3, Idar-Oberstein, Germany) and air jet sieving (10 minutes in an Alpine A200, Augsburg, Germany) of small quantities (approx. 50 g) of the starting material. Micronized Colistin was prepared by fluid energy milling (GfM, Hamburg, Germany), but because the size distribution of the active ingredient was not satisfactory, size reduction of the crystalline material was continued for 26.5 hours in a ball mill (50 g in a container of 750 ml, filled with ceramic balls of different sizes to a filling degree of 67%). The container was placed on a home constructed drive. Size distributions before and after milling in the ball mill were measured with laser diffraction technique (Fraunhofer theory, using Sympatec HELOS Compact, model KA with 100 mm lens) using dry dispersion with a RODOS disperser at 4 bar.

A short description of data set [2]: Laser diffraction analysis of the aerosol cloud from the test inhaler (cyclone). The following applies: 60 l/min, 20 mg per inhalation, lactose fraction 63-106 μm, mean of 6 inhalations. The method, then: Inhalation experiments with the mixture were performed at 60 l/min with a test inhaler (see FIG. 1), having the same disintegration principle (cyclone) as the Colistin dry powder inhaler (prototype). […]
(§1) The aerosol cloud from the inhaler was characterized with a laser diffraction technique (Sympatec HELOS Compact, model KA with 100 mm lens) using the Fraunhofer theory. A special inhaler adapter was used in order to adjust the required flow rate through the inhaler device. The adapter consisted of a cylindrical chamber with side tubes connecting the adapter at both sides to the housing of the laser diffraction apparatus. The inhaler device was connected to the front of the adapter, whereas the vacuum system was connected to the rear end of the adapter. Thus, a closed system was created through which the flow rate can be controlled very carefully and in which the aerosol cloud passes the laser beam for the measurement. Standard HELOS software was used: start and stop of the measurement was triggered on channel 32 with 0.1% difference in optical signal (compared with the signal during reference measurement). The mass fraction of the dose delivered by the inhaler was not analyzed during these experiments (no particle collector in line with the adapter).
II The physical mixture with 83.3% Colistin was also tested with the test inhaler at 20, 30, 40 and 50 l/min. […]

The nature of data set [3]: Laser diffraction analysis of the aerosol cloud from the Pharmachemie Cyclohaler (ISF inhaler). Conditions: 60 l/min, 10 mg per capsule, six inhalations.
Source text: as §1
Pure micronized Colistin was also inhaled with a commercial DPI (Pharmachemie Cyclohaler equals ISF Inhaler equals Novartis Foradil Inhaler, see FIG. 3), using the same (laser diffraction) procedures. Six hard gelatin capsules (no. 3) were filled with 10 mg per capsule and the capsules were sealed before use. Inhalation time was 3 seconds. […]

The mark [4] stands for this setting: primary Colistin particles, RODOS dispersion.

With Colistin, the “mean diameter (X50-value)” value in data set [1] (after size reduction in the ball mill (26.5 hours), RODOS dispersion, n=3) is listed as 2.14 μm; in data set [1] (before size reduction in the ball mill, RODOS disperser at 4 bar) it was 6.43 μm. The X100-value in data set [1] (after size reduction in the ball mill, RODOS dispersion) is recorded as 87.0 μm; in data set [1] (before size reduction in the ball mill, RODOS dispersion), 51.0 μm. Moreover, the figures for the “X-50 (μm) From cum. undersize curve” value in data set [1] (setting [4]) and in data set [2] were 2.1 μm and 2.3 μm, respectively. In addition, the “X-90 (μm) From cum. Undersize curve” value was determined as 31.0 μm in data set [1] (setting [4]) and 7.5 μm in data set [2]. Further, in data set [3], the “average median diameter for the aerosol cloud” value stood at 18.23 micron.
